Experimental data reported in patent publication US20220213030A1, “AMINOGUANIDINE HYDRAZONES AS RETROMER STABILIZERS USEFUL FOR TREATING NEUROLOGICAL DISEASES” (OSPEDALE SAN RAFFAELE SRL, priority 2019, published 2022).

What was measured:
VPS35 = VPS35 (Mus musculus, UniProt Q9EQH3+Q9QZ88); test: Cycloheximide (CHX) chase assay of VPS35 degradation in Neuro2a; format: cell-based; set-up: endogenous in cells; host or cells: Neuro2a; settings: 10 μM for 24 hours, then CHX 10 μg/mL up to 8 h
Procedure: Compound 2a increases the stability of the retromer complex in vitro. We further validated this concept by measuring VPS35 degradation rates by a cycloheximide (CHX) chase assay. Neuro2a cells received vehicle or lead 2a (10 μM) for 24 hours, then CHX was added to the medium, and VPS35 levels were measured by western blot. […] As is the case with R55 (Mecozzi, Berman et al. 2014), compound 2a should not influence the transcription levels of CRC genes in Neuro2a cells.
Cycloheximide (CHX) assay was done on Neuro2a cells seeded in 6-well plates and incubated with compound 2a (10 μM) or vehicle for 24 hours. We next added CHX (Sigma) at 10 μg/mL and cells were collected at 0, 2, 4 and 8 hours for the time-course assay of VPS35 levels.

G93A aggregates (SOD1) = test: Blue-native gel electrophoresis of SOD1 aggregates in G93A mice; format: in vivo, mouse; settings: 10 mg/kg daily, day 83 to day 103
Procedure: SOD1 mutations increase the propensity of this protein to aggregate in cells (Johnston 2000). We checked whether compound 2a could reduce the accumulation of G93A aggregates in vivo. Starting at post-natal day 83, we injected G93A mice and WT littermates daily with compound 2a (10 mg/kg). We scored motor performances in both vehicle- and compound 2a-treated G93A mice until day 103. […] At day 103, we resolved SC protein extracts by blue-native polyacrylamide gel electrophoresis, and probing these gels with anti-SOD1 antibodies we observed high molecular weight smears in G93A mice that were completely absent in WT litters. The intensity of these high molecular weight entities was lowered in mice treated with lead 2a (FIG. 14B, C). Altogether, retromer stabilization by compound 2a increases lysosomal homeostasis in vitro and in vivo, decreases poly ubiquitination of proteins, and therefore diminishes levels of G93A aggregation.
G93A mice and their WT litters were injected daily with vehicle or compound 2a (10 mg/kg, from day 83 to day 103). Lumbar spinal cords dissected from saline perfused mice were lysed in Tris-HCl 10 mM pH 8, EDTA 1 mM pH 8, NaCl 100 mM, NP40 1% and protease inhibitor cocktail (Sigma). Extracts were obtained using a tight-fitting glass Potter tissue grinder (1 ml; Wheaton). We incubated 250 μl of each extract with 100 mM Iodoacetamide (Sigma). […]

[1] = test system: Neuro2a cells transfected with G93A plasmids; test: Cell survival (CCK8) of Neuro2a transfected with G93A plasmids; format: cell-based, mouse; settings: 10 μM
Excerpt: Pathological alteration of the Golgi apparatus, such as its fragmentation, has been described in many neurodegenerative disorders including ALS. Neuro2a cells transfected with plasmids encoding the G93A mutant form of the SOD1 show alteration of the Golgi transport (Soo, Halloran et al. 2015). Along the same lines, Golgi fragmentation precedes neuromuscular denervation and axon retraction in ALS mice (van Dis, Kuijpers et al. 2014). We transfected Neuro2a cells with plasmids encoding the G93A mutant form of the human SOD1 gene (hereafter G93A) in presence or in absence of compound 2a (10 μM). Cells were harvested after 48 hours, labelled for Golgin-97 and scored for the distribution of trans-Golgi. […] Of note, the fragmentation of Golgi in cells receiving G93A plasmids was not depending on Golgin97 expression levels (FIG. 3A). We speculated that Golgi fragmentation may exacerbate cell death in this cell line. Therefore, we assayed cell survival of Neuro2a transfected with G93A plasmids. Accordingly, cells were transfected with G93A plasmids or with a control plasmid encoding the LacZ. […] Rates of cell survival were similar among controls—i.e. cells receiving LacZ plasmids or compound 2a—when compared with untreated cells. On the other hand, the over-expression of G93A plasmids affected Neuro2a cell survival. […]

G93A mice = test: Histopathology of sciatic nerves of G93A mice; format: in vivo, mouse; settings: 10 mg/kg daily, day 100
Excerpt: We next performed histopathological analysis of sciatic nerves from WT control and G93A mice receiving compound 2a or vehicle. […] Using Luxol Fast Blue (LFB) staining, which binds lipoproteins of the myelin sheath, we analyzed myelination in sagittal sections of these nerves. […] Therefore, we observed a reduction of fibers degeneration and demyelination in sciatic nerves of G93A mice treated with compound 2a.
Comparative studies on sciatic nerves were done on tissues removed upon saline perfusion and rapidly fixed with 2% glutaraldehyde in 0.12 mol/L phosphate buffer, post fixed with 1% osmium tetroxide, and embedded in Epon (Fluka). Semi-thin sections (1 μm thick) were stained with toluidine blue and examined by light microscopy (Olympus BX51). Digitized not overlapping semi-thin section images from corresponding levels of the sciatic nerve were obtained with a digital camera (Leica DFC300F) using a 40X objective. Quantifications were done on at least 5 acquired images from each mouse. The numbers of degenerating nerve fibers were quantified using ImageJ software (National Institutes of Health, Bethesda, Md.).

N=C(N)NN=Cc1cccc(C=NNC(=N)N)c1 [Compound 2a, 1,3-Bis-amino guanidine phenyl hydrazone]
VPS35 degradation after CHX (VPS35): protected VPS35 from degradation | intensity of high molecular weight SOD1 entities (G93A aggregates (SOD1)): lowered | cell survival of G93A-transfected cells [1]: significantly reverted this phenotype | cell survival of cells transfected with G93A and Sh56 (VPS35 RNAi) plasmids ([1]; VPS35 knock down): substantially affected the capability of compound 2a to revert this phenotype | degenerating peripheral nerve fibers in sciatic nerves (G93A mice): significant protection of peripheral nerve fibers | demyelination (Luxol Fast Blue staining) (G93A mice): substantial attenuation of the demyelination process | myelin integrity (MBP and NF-M labelling) (G93A mice): preserved the integrity of myelin
